Values quoted from earlier work as cited in PMC2803438 (Current Chemical Genomics, 2008).

Tests used:
[1] = target: Hsc70; conditions: read-out: Kd, binding to Hsc70; moderate affinity
[2] = tested on: Hsc70; conditions: read-out: IC50 for binding to Hsc70

Row | Kd [1] | IC50 [2] | Compound
1 | 500 nM | – | N=C(N)NCCCCCCC(=O)NC(O)C(=O)NCCCCNCCCN (centres unmarked) [15-deoxyspergualin]
2 | – | 2800 nM | NIVRKKK
